Laboratory results: patent US9050286B2, “Use of peptidic vasopression receptor agonists” (Ferring B.V., priority 2007, dated 2015)
Bridge positions count the residues as written; N and C are the ends. Square brackets hold non-standard residues; d marks the D form. Peptide text beside a SMILES is read from it. Ala(cPent) = N[C@@H](CC1CCCC1)C(=O)O; Orn(iPr) = CC(C)NCCC[C@H](N)C(=O)O; Cha = N[C@@H](CC1CCCCC1)C(=O)O; Orn = NCCC[C@H](N)C(=O)O; Dab = NCC[C@H](N)C(=O)O; Ac4c = NC1(C(=O)O)CCC1

Molecular target: T1, hV1a receptor (Homo sapiens, UniProt P37288)
T1 construct: expressed in transfected cells; host or cells: HEK-293
Assay: hV1a receptor agonist transcriptional reporter (luciferase) assay in transiently transfected HEK-293 cells
Type: cell-based
Settings: agonist activity; HEK-293 cells transiently transfected with hV1a receptor and calcium-responsive luciferase reporter; 5 hours exposure; geometric mean of at least three independent experiments; read-out: EC50 (median effective concentration)
Procedure: Agonist activity of compounds on the hV1a receptor was determined in a transcriptional reporter assay by transiently transfecting a hV1a receptor expression DNA into HEK-293 cells in concert with a reporter DNA containing intracellular calcium responsive promoter elements regulating expression of firefly luciferase. See Boss, V., Talpade, D. J., Murphy, T. J. J. Biol. Chem. 1996, May 3; 271(18), 10429-10432 for further guidance on this assay. […] Arginine-vasopressin (AVP) was used as an internal control in each experiment, and compounds were tested in at least three independent experiments.
The results of the in vitro assays are depicted in table 1 supra. The EC50 value given is the geometric mean expressed in nanomol/L (nM). Selectivity values are given as EC50 ratios.

T1 sequence (P37288 whole entry): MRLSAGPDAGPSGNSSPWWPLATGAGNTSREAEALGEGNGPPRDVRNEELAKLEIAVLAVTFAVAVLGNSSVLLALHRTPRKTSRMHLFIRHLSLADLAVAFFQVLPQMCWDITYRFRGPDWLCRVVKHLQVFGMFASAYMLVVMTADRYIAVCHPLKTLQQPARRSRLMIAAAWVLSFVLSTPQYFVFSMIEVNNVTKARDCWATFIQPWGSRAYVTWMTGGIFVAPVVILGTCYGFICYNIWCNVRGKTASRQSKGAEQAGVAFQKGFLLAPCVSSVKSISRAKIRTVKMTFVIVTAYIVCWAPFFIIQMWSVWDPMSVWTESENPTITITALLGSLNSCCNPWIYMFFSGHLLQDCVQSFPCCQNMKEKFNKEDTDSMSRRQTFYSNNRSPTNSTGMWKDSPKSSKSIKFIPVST

| Compound | EC50 [nM] |
| --- | --- |
| CC[C@H](C)[C@@H]1NC(=O)C2(CCC2)NC(=O)[C@@H](N)CSSC[C@@H](C(=O)N2CCC[C@H]2C(=O)N[C@@H](CCCN)C(=O)NCC(N)=O)NC(=O)[C@H](CC(N)=O)NC(=O)[C@H](CC(N)=O)NC1=O [Compound 6] (H-C[Ac4c]INNCP[Orn]G-NH2; disulfide 1-6) | 7.93 |
| CC[C@H](C)[C@@H]1NC(=O)[C@H](CC2CCCC2)NC(=O)[C@@H](N)CSSC[C@@H](C(=O)N2CCC[C@H]2C(=O)N[C@@H](CCCN)C(=O)NCC(N)=O)NC(=O)[C@H](CC(N)=O)NC(=O)[C@H](CC(N)=O)NC1=O [Compound 7] (H-C[Ala(cPent)]INNCP[Orn]G-NH2; disulfide 1-6) | 7.7 |
| CC[C@H](C)[C@@H]1NC(=O)C2(CCC2)NC(=O)[C@@H](N)CSSC[C@@H](C(=O)N2CCC[C@H]2C(=O)N[C@@H](CCN)C(=O)NCC(N)=O)NC(=O)[C@H](CC(N)=O)NC(=O)[C@H](CC(N)=O)NC1=O [Compound 9] (H-C[Ac4c]INNCP[Dab]G-NH2; disulfide 1-6; N-terminus assumed) | 14.8 |
| CC[C@H](C)[C@@H]1NC(=O)[C@H](CC2CCCCC2)NC(=O)[C@@H](N)CSSC[C@@H](C(=O)N2CCC[C@H]2C(=O)N[C@@H](CCN)C(=O)NCC(N)=O)NC(=O)[C@H](CC(N)=O)NC(=O)[C@H](CC(N)=O)NC1=O [Compound 12] (H-C[Cha]INNCP[Dab]G-NH2; disulfide 1-6; N-terminus assumed) | 2.28 |

The next lines start with the values.

| EC50 [nM] | Compound |
| --- | --- |
| 10.7 | CC[C@H](C)[C@@H]1NC(=O)[C@H](CC2CCCCC2)NC(=O)[C@@H](N)CSSC[C@@H](C(=O)N2CCC[C@H]2C(=O)N[C@@H](CCCNC(C)C)C(=O)NCC(N)=O)NC(=O)[C@H](CC(N)=O)NC(=O)[C@H](CC(N)=O)NC1=O [Compound 4, [Cha^2, Asn^4, Orn (i-Pr)^8]VT] (H-C[Cha]INNCP[Orn(iPr)]G-NH2; disulfide 1-6) |
| 0.75 | CC[C@H](C)[C@@H]1NC(=O)[C@H](CC2CCCCC2)NC(=O)[C@@H](N)CSSC[C@@H](C(=O)N2CCC[C@H]2C(=O)N[C@@H](CCCN)C(=O)NCC(N)=O)NC(=O)[C@H](CC(N)=O)NC(=O)[C@H](CC(N)=O)NC1=O [Compound 8] (H-C[Cha]INNCP[Orn]G-NH2; disulfide 1-6) |
